Experimental findings from patent publication EP4810052A2, “HCRHR2 SELECTIVE POLYPEPTIDES” (Gubra A/S, priority 2023, dated 2026) are described below.

The target of assay [1] is T1, hCRHR2 (Homo sapiens, UniProt Q13324).
T1 sequence (Q13324 1-411): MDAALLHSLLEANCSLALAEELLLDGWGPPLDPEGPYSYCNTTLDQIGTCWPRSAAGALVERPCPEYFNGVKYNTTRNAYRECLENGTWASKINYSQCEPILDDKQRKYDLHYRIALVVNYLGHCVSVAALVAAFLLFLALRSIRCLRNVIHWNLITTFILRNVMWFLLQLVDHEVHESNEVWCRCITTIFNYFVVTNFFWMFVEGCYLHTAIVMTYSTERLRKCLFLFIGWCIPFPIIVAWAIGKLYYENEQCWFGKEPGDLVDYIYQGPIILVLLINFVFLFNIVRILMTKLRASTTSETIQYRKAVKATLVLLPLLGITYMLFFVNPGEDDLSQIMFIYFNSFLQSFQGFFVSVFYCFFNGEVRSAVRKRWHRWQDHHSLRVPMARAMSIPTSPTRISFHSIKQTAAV
The assay is described as follows: HTRF cAMP assay, determination of hCRHR2 potency (peptide libraries 5 conc., purified peptides 11 conc.). Format: cell-based. Summed up: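 Cells: CHO-K1/hCRHR2 stable clone, suspension, freshly thawed. Readout: competitive TR-FRET, anti-cAMP cryptate vs cAMP-d2. Analysis: sigmoid variable-slope nonlinear regression → EC50.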

Assay [2] has as its target T2, hCRHR1 (Homo sapiens, UniProt P34998).
T2 sequence (P34998 24-415): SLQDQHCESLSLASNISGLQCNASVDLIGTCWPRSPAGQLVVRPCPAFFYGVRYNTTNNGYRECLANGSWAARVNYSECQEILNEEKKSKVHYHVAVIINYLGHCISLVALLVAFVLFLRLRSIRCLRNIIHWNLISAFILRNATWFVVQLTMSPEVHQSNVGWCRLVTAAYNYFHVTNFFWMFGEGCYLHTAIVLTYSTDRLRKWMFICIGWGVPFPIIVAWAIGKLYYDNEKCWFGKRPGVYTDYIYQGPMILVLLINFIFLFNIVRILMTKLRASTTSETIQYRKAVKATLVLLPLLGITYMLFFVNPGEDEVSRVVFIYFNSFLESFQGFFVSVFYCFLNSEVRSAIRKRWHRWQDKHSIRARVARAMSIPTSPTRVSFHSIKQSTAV
The assay is described as follows: HTRF cAMP assay, determination of hCRHR1 potency (peptide libraries 5 conc., purified peptides 11 conc.). Format: cell-based. The procedure, abridged: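 Cellular cAMP was read by time-resolved FRET between d2-labelled cAMP and cryptate anti-cAMP antibody. The cells were freshly thawed suspension CHO-K1 cells stably expressing human CRHR1.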
On the technique in general: TR-FRET usually uses a lanthanide donor and a delayed reading to cut background.

Setting [3] is: library peptides, matched molecular pairs L vs Nle in position X^38, read-out: Potency hCRHR2 pEC50 (converted).
Setting [4] is: library peptides, matched molecular pairs L vs Nle in position X^38, read-out: Potency hCRHR1 pEC50 (converted).

Like-named read-outs stand apart in the source and are kept apart here. Starred links: 1 amine or outer side, 2 acyl side, 3 side chain; linkers in the order of their positions; H or OH if unused. Non-standard residues stand in square brackets, D forms with d. Residues, ends and D or L forms follow the SMILES beside them. Groups on a side chain read outwards from the residue. *: point of attachment. C20 diacid = O=C(O)CCCCCCCCCCCCCCCCCCC(=O)*; γGlu = O=C(O)[C@H](CCC(=O)[*:2])N[*:1]; NMeI = CC[C@H](C)[C@H](NC)C(=O)O; Nle = CCCC[C@H](N)C(=O)O; AEEA = NCCOCCOCC(=O)O; Aib = CC(C)(N)C(=O)O

`CC[C@H](C)[C@H](N)C(=O)N[C@H](C(=O)N[C@@H](CC(C)C)C(=O)N[C@@H](CO)C(=O)N[C@@H](CC(C)C)C(=O)N[C@@H](CC(=O)O)C(=O)N[C@H](C(=O)N1CCC[C@H]1C(=O)N[C@H](C(=O)NCC(=O)N[C@@H](CC(C)C)C(=O)N[C@@H](CC(C)C)C(=O)N[C@@H](CCC(N)=O)C(=O)N[C@H](C(=O)N[C@@H](CC(C)C)C(=O)N[C@@H](CC(C)C)C(=O)N[C@@H](CCC(=O)O)C(=O)N[C@@H](CCC(N)=O)C(=O)N[C@@H](C)C(=O)N[C@@H](CCCNC(=N)N)C(=O)N[C@@H](C)C(=O)N[C@@H](CCCNC(=N)N)C(=O)N[C@@H](C)C(=O)N[C@@H](C)C(=O)N[C@@H](CCCNC(=N)N)C(=O)N[C@@H](CCC(=O)O)C(=O)N[C@@H](CCC(=O)O)C(=O)N[C@@H](C)C(=O)N[C@@H](CCCCNC(=O)COCCOCCNC(=O)COCCOCCNC(=O)CC[C@H](NC(=O)CC[C@H](NC(=O)CCCCCCCCCCCCCCCCCCC(=O)O)C(=O)O)C(=O)O)C(=O)N[C@H](C(=O)N[C@@H](CC(N)=O)C(=O)N[C@@H](C)C(=O)N[C@@H](CCC(=O)O)C(=O)N[C@H](C(=O)N[C@@H](CC(C)C)C(=O)N[C@@H](C)C(=O)N[C@@H](CCC(=O)O)C(=O)N[C@H](C(N)=O)[C@@H](C)CC)[C@@H](C)CC)[C@@H](C)O)[C@@H](C)CC)[C@@H](C)CC)C(C)C)C(C)C` [compound 74] (H-IVLSLDVPIGLLQILLEQARARAAREEAK([AEEA-AEEA-γGlu-γGlu-C20 diacid])TNAEILAEI-NH2): the results for the EC50 in assay [1] (setting [3]) and in assay [2] (setting [4]) were 2 nM and 158000 nM, respectively.

`CCCC[C@H](NC(=O)[C@@H](NC(=O)[C@H](CCC(=O)O)NC(=O)[C@H](C)NC(=O)[C@H](CC(N)=O)NC(=O)[C@@H](NC(=O)[C@H](CCCCNC(=O)COCCOCCNC(=O)COCCOCCNC(=O)CC[C@H](NC(=O)CC[C@H](NC(=O)CCCCCCCCCCCCCCCCCCC(=O)O)C(=O)O)C(=O)O)NC(=O)[C@H](C)NC(=O)[C@H](CCC(N)=O)NC(=O)[C@H](CCC(=O)O)NC(=O)[C@H](CCCNC(=N)N)NC(=O)[C@H](C)NC(=O)[C@H](C)NC(=O)[C@H](CCC(N)=O)NC(=O)[C@H](C)NC(=O)[C@H](CCCNC(=N)N)NC(=O)[C@H](C)NC(=O)[C@H](CCC(N)=O)NC(=O)[C@H](CCC(=O)O)NC(=O)[C@H](CC(C)C)NC(=O)[C@H](CC(C)C)NC(=O)[C@@H](NC(=O)[C@H](CCC(N)=O)NC(=O)[C@H](CC(C)C)NC(=O)[C@H](CC(C)C)NC(=O)CNC(=O)[C@@H](NC(=O)[C@@H]1CCCN1C(=O)[C@@H](NC(=O)[C@H](CC(=O)O)NC(=O)[C@H](CC(C)C)NC(=O)[C@H](CO)NC(=O)[C@H](CC(C)C)NC(=O)[C@@H](NC(=O)[C@@H](N)[C@@H](C)CC)C(C)C)C(C)C)[C@@H](C)CC)[C@@H](C)CC)[C@@H](C)O)[C@@H](C)CC)C(=O)N[C@@H](C)C(=O)N[C@@H](CCC(=O)O)C(=O)N[C@H](C(N)=O)C(C)C` [compound 63] (H-IVLSLDVPIGLLQILLEQARAQAAREQAK([AEEA-AEEA-γGlu-γGlu-C20 diacid])TNAEI[Nle]AEV-NH2): the values for the EC50 in assay [1] (setting [3]) and in assay [2] (setting [4]) were 0.251 nM and 501 nM, respectively.

Regarding `CC[C@H](C)[C@H](N)C(=O)N[C@H](C(=O)N[C@@H](CC(C)C)C(=O)N[C@@H](CO)C(=O)N[C@@H](CC(C)C)C(=O)N[C@@H](CC(=O)O)C(=O)N[C@H](C(=O)N1CCC[C@H]1C(=O)N[C@H](C(=O)NCC(=O)N[C@@H](CC(C)C)C(=O)N[C@@H](CC(C)C)C(=O)N[C@@H](CCC(N)=O)C(=O)N[C@H](C(=O)N[C@@H](CC(C)C)C(=O)N[C@@H](CC(C)C)C(=O)N[C@@H](CCC(=O)O)C(=O)N[C@@H](CCC(N)=O)C(=O)N[C@@H](C)C(=O)N[C@@H](CCCNC(=N)N)C(=O)N[C@@H](C)C(=O)N[C@@H](CCCNC(=N)N)C(=O)N[C@@H](C)C(=O)N[C@@H](CC(C)C)C(=O)N[C@@H](CCCNC(=N)N)C(=O)N[C@@H](CCC(N)=O)C(=O)N[C@@H](CCC(=O)O)C(=O)N[C@@H](C)C(=O)N[C@@H](CCCCNC(=O)COCCOCCNC(=O)COCCOCCNC(=O)CC[C@H](NC(=O)CC[C@H](NC(=O)CCCCCCCCCCCCCCCCCCC(=O)O)C(=O)O)C(=O)O)C(=O)N[C@H](C(=O)N[C@@H](CC(N)=O)C(=O)N[C@@H](C)C(=O)N[C@@H](CCC(=O)O)C(=O)N[C@H](C(=O)N[C@@H](CC(C)C)C(=O)N[C@@H](C)C(=O)N[C@@H](CCC(=O)O)C(=O)N[C@H](C(N)=O)C(C)C)[C@@H](C)CC)[C@@H](C)O)[C@@H](C)CC)[C@@H](C)CC)C(C)C)C(C)C` [SEQ ID NO: 37] (H-IVLSLDVPIGLLQILLEQARARALRQEAK([AEEA-AEEA-γGlu-γGlu-C20 diacid])TNAEILAEV-NH2), the EC50 in assay [1] (Table 3, matched molecular pairs X^38 L vs Nle, peptide library of Example 4, read-out: hCRHR2 pEC50 (converted)) was 3.16 nM; in assay [2] (Table 3, matched molecular pairs X^38 L vs Nle, peptide library of Example 4, read-out: hCRHR1 pEC50 (converted)) it was 158000 nM.

Regarding `CCCC[C@H](NC(=O)[C@@H](NC(=O)[C@H](CCC(=O)O)NC(=O)[C@H](C)NC(=O)[C@H](CC(N)=O)NC(=O)[C@@H](NC(=O)[C@H](CCCCNC(=O)COCCOCCNC(=O)COCCOCCNC(=O)CC[C@H](NC(=O)CC[C@H](NC(=O)CCCCCCCCCCCCCCCCCCC(=O)O)C(=O)O)C(=O)O)NC(=O)[C@H](C)NC(=O)[C@H](CCC(N)=O)NC(=O)[C@H](CCC(=O)O)NC(=O)[C@H](CCCNC(=N)N)NC(=O)[C@H](CC(C)C)NC(=O)[C@H](CCC(N)=O)NC(=O)[C@H](CCCNC(=N)N)NC(=O)[C@H](C)NC(=O)[C@H](CCCNC(=N)N)NC(=O)[C@H](C)NC(=O)[C@H](CCC(N)=O)NC(=O)[C@H](CCC(=O)O)NC(=O)[C@H](CC(C)C)NC(=O)[C@H](CC(C)C)NC(=O)[C@@H](NC(=O)[C@H](CCC(N)=O)NC(=O)[C@H](CC(C)C)NC(=O)[C@H](CC(C)C)NC(=O)CNC(=O)[C@@H](NC(=O)[C@@H]1CCCN1C(=O)[C@@H](NC(=O)[C@H](CC(=O)O)NC(=O)[C@H](CC(C)C)NC(=O)[C@H](CO)NC(=O)[C@H](CC(C)C)NC(=O)[C@@H](NC(=O)[C@@H](N)[C@@H](C)CC)C(C)C)C(C)C)[C@@H](C)CC)[C@@H](C)CC)[C@@H](C)O)[C@@H](C)CC)C(=O)N[C@@H](C)C(=O)N[C@@H](CCC(=O)O)C(=O)N[C@H](C(N)=O)C(C)C` [compound 73] (H-IVLSLDVPIGLLQILLEQARARQLREQAK([AEEA-AEEA-γGlu-γGlu-C20 diacid])TNAEI[Nle]AEV-NH2), the EC50 in assay [1] (setting [3]) was 0.2 nM; in assay [2] (setting [4]) it was 3.98 nM.

For `CCCC[C@H](NC(=O)[C@@H](NC(=O)[C@H](CCC(=O)O)NC(=O)C(C)(C)NC(=O)[C@H](CC(N)=O)NC(=O)[C@@H](NC(=O)[C@H](CCCCNC(=O)COCCOCCNC(=O)COCCOCCNC(=O)CC[C@H](NC(=O)CC[C@H](NC(=O)CCCCCCCCCCCCCCCCCCC(=O)O)C(=O)O)C(=O)O)NC(=O)[C@H](C)NC(=O)[C@H](CCC(N)=O)NC(=O)[C@H](CCC(=O)O)NC(=O)[C@H](CCCNC(=N)N)NC(=O)[C@H](C)NC(=O)[C@H](C)NC(=O)[C@H](CCCNC(=N)N)NC(=O)[C@H](C)NC(=O)[C@H](CCCNC(=N)N)NC(=O)[C@H](C)NC(=O)[C@H](CCC(N)=O)NC(=O)[C@H](CCC(=O)O)NC(=O)[C@H](CC(C)C)NC(=O)[C@H](CC(C)C)NC(=O)[C@@H](NC(=O)[C@H](CCC(N)=O)NC(=O)[C@H](CC(C)C)NC(=O)[C@H](CC(C)C)NC(=O)CNC(=O)[C@@H](NC(=O)[C@@H]1CCCN1C(=O)[C@@H](NC(=O)[C@H](CC(=O)O)NC(=O)[C@H](CC(C)C)NC(=O)[C@H](CO)NC(=O)[C@H](CC(C)C)NC(=O)[C@@H](NC(=O)[C@@H](NC)[C@@H](C)CC)C(C)C)C(C)C)[C@@H](C)CC)[C@@H](C)CC)[C@@H](C)O)[C@@H](C)CC)C(=O)N[C@@H](C)C(=O)N[C@@H](CCC(=O)O)C(=O)N[C@H](C(N)=O)C(C)C` [compound 205] (H-[NMeI]VLSLDVPIGLLQILLEQARARAAREQAK([AEEA-AEEA-γGlu-γGlu-C20 diacid])TN[Aib]EI[Nle]AEV-NH2), the EC50 was 0.0631 nM in assay [1] (Table 4, library peptides having X^38 = Nle, read-out: hCRHR2 pEC50 (converted)) and 1260 nM in assay [2] (Table 4, library peptides having X^38 = Nle, read-out: hCRHR1 pEC50 (converted)). In assay [1] (Table 4, ratio, or comparison with Ref. 1 (SEQ ID NO: 205) / Ref. 2 (SEQ ID NO: 124)), the “Selectivity hCRHR1 EC50/hCRHR2 EC50” value is on record as 20689.
